The text below walks through data of PubChem BioAssay (NCI).

Among the test systems are U251 CNS; NCI-H23 lung; SK-OV-3 ovarian; ACHN renal; KM12 colon; SNB-19 CNS; MALME-3M melanoma; SNB-75 CNS; HCC-2998 colon; SF-295 CNS.
Holding throughout (test): DTP human tumour cell line panel, 48 h

As usually defined, the TGI is the concentration at which net growth stops. Low readings indicate more potent growth arrest, high ones less potent growth arrest. For orientation: GI50 means the concentration that inhibits growth by half.

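Assay format: 96-well plates, 48-hour exposure. At the GI50, growth is halved. TGI: concentration producing complete growth inhibition.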 Bounds are passed on as bounds.

Regarding `CC(=O)N/C(=C\c1ccc(/C=C(\NC(C)=O)c2nc3ccc(Cl)cc3[nH]2)cc1)c1nc2ccccc2[nH]1`, the TGI in the assay on U251 CNS, with NCI-H23 lung, in the assay with SK-OV-3 ovarian, in the assay with ACHN renal, with KM12 colon and with SNB-19 CNS was greater than 100 µM throughout. Moreover, the total growth inhibition concentration (TGI) in the assay with MALME-3M melanoma and in the assay with SNB-75 CNS was greater than 100 µM each time.
Take `COc1cc(-c2nc3ccc(C)cc3[nH]2)ccc1OCC(=O)N=Nc1c(O)[nH]c2ccccc12`: the GI50 with HCC-2998 colon is 1.86 µM; with NCI-H23 lung, 1.81 µM; in the assay on ACHN renal it was 3.39 µM; in the assay on KM12 colon, 1.83 µM; in the assay with SNB-19 CNS, 1.83 µM; in the assay with MALME-3M melanoma, 1.68 µM. Besides, the GI50 in the assay with SF-295 CNS was 1.94 µM; in the assay with SNB-75 CNS it was 1.07 µM. Also, the total growth inhibition concentration (TGI) in the assay on HCC-2998 colon is 3.31 µM; in the assay with NCI-H23 lung, 3.48 µM; in the assay with ACHN renal it was 13.6 µM; in the assay with KM12 colon it was 3.54 µM; in the assay on SNB-19 CNS it was 3.51 µM; with MALME-3M melanoma, 3.18 µM. The total growth inhibition concentration (TGI) worked out at 3.82 µM in the assay with SF-295 CNS and 2.91 µM with SNB-75 CNS.
As for `Cc1c(CCCl)c(=O)n2c([nH]c3ccccc32)c1C#N`, the TGI was found to be 3.45 µM with U251 CNS; 3.49 µM in the assay with NCI-H23 lung; 3.84 µM in the assay with SK-OV-3 ovarian; 2.81 µM with ACHN renal; 3.14 µM in the assay with KM12 colon; 2.02 µM in the assay with MALME-3M melanoma. For the same compound, the total growth inhibition concentration (TGI) with SF-295 CNS is 3.48 µM; in the assay on SNB-75 CNS, 2.78 µM.
For the compound `CCN(CC)CCC1CC/C(=C\c2ccc(OC)cc2)C1=O` (configuration not stated), the TGI in the assay on U251 CNS, with HCC-2998 colon, with ACHN renal, with KM12 colon, in the assay with SNB-19 CNS and with MALME-3M melanoma was greater than 100 µM in each case. Also, the TGI in the assay with SF-295 CNS and in the assay with SNB-75 CNS was greater than 100 µM in each case.
For the compound `CC1(C)C=CC[C@]2(C)[C@H]3CC[C@@H]4[C@H]5[C@H](C(=O)/C=C/c6cccnc6)CC[C@]5(CO)CC[C@@]4(C)[C@]3(C)CC[C@@H]12`, the GI50 was 1.24 µM in the assay on U251 CNS; 1.78 µM in the assay with SK-OV-3 ovarian; 1.14 µM with ACHN renal; 1.01 µM with KM12 colon; 1.49 µM in the assay with SNB-19 CNS; 1.38 µM with MALME-3M melanoma. Further, in the assay on SF-295 CNS, the GI50 was 1.15 µM. The TGI was 2.65 µM with U251 CNS; 3.62 µM in the assay with SK-OV-3 ovarian; 2.35 µM in the assay on ACHN renal; 2.42 µM with KM12 colon; 2.84 µM in the assay with SNB-19 CNS; 2.8 µM in the assay on MALME-3M melanoma. This compound also displayed a TGI in the assay on SF-295 CNS of 2.42 µM.
For the compound `C=CCNC(=S)N1CC(C)C(=O)Nc2ccccc21` (configuration not stated), the total growth inhibition concentration (TGI) in the assay on U251 CNS, with NCI-H23 lung, with ACHN renal, in the assay with KM12 colon, in the assay on SNB-19 CNS and in the assay on MALME-3M melanoma was greater than 100 µM each time. Besides, the TGI in the assay with SF-295 CNS and with SNB-75 CNS was greater than 100 µM in each case.
Take `Oc1ccc(Br)cc1Sc1cc(Br)ccc1O`: the GI50 was 4.42 µM in the assay on U251 CNS; 3.14 µM with NCI-H23 lung; 14.9 µM in the assay with SK-OV-3 ovarian; 6.4 µM with ACHN renal; 17 µM in the assay with KM12 colon; 4.88 µM in the assay on SNB-19 CNS. Besides, the GI50 was 14.4 µM in the assay on SF-295 CNS and 4.29 µM in the assay with SNB-75 CNS. In addition, the total growth inhibition concentration (TGI) was determined as 18.4 µM with U251 CNS; 11.8 µM in the assay with NCI-H23 lung; 29.7 µM in the assay on SK-OV-3 ovarian; 20.8 µM in the assay on ACHN renal; 33.3 µM with KM12 colon; 25.2 µM in the assay on SNB-19 CNS. The TGI was 33.5 µM in the assay on SF-295 CNS and 19.7 µM in the assay with SNB-75 CNS.
Turning to `CCN(CC)CCNc1c(OC)cc(C)c2sc3ccccc3c(=O)c12`, the TGI came to 16 µM in the assay on U251 CNS; 29 µM with NCI-H23 lung; 31.3 µM with SK-OV-3 ovarian; 15.8 µM in the assay on ACHN renal; 17.2 µM with KM12 colon; 26.6 µM in the assay on SNB-19 CNS. Moreover, the TGI in the assay with MALME-3M melanoma worked out at 6.08 µM; in the assay on SF-295 CNS, 14.4 µM; with SNB-75 CNS it was 28.7 µM.
As to `C=CCn1c(C)nc2cc(Nc3nc(Nc4ccc5nc(C)n(CC=C)c5c4)c4ccccc4n3)ccc21`, the GI50 with HCC-2998 colon is 1.17 µM; in the assay with NCI-H23 lung, 1.88 µM; in the assay with ACHN renal it was 0.292 µM; in the assay on KM12 colon it was 0.254 µM; in the assay on SF-295 CNS, 1.19 µM; with SNB-75 CNS it was 0.745 µM. The TGI in the assay with HCC-2998 colon is 2.5 µM; in the assay with NCI-H23 lung, 4.57 µM; with ACHN renal, 1.01 µM; in the assay with KM12 colon it was 0.659 µM; with SF-295 CNS, 2.56 µM; in the assay on SNB-75 CNS, 2.3 µM.
For `O=C(Oc1ccc(O)c2c(=O)n3c(cc12)[nH]c1ccccc13)c1ccccc1`, the GI50 is 10.1 µM in the assay on U251 CNS; 18.6 µM in the assay with HCC-2998 colon; 16 µM in the assay with NCI-H23 lung; 7.55 µM with ACHN renal; 34.7 µM in the assay on KM12 colon; 37.7 µM with SNB-19 CNS. Also, the results for the GI50 in the assay on SF-295 CNS and in the assay with SNB-75 CNS were 40.8 µM and 28.3 µM, respectively. Also, the TGI was 27.4 µM in the assay with U251 CNS; 36.9 µM with HCC-2998 colon; 37.7 µM in the assay with NCI-H23 lung; 23.6 µM with ACHN renal; greater than 100 µM in the assay with KM12 colon; greater than 100 µM in the assay with SNB-19 CNS. The TGI in the assay with SF-295 CNS and in the assay on SNB-75 CNS was greater than 100 µM in each case.
Turning to `CC(=O)O/N=C/c1ncccc1CO`, the total growth inhibition concentration (TGI) with U251 CNS, with NCI-H23 lung, in the assay on SK-OV-3 ovarian, in the assay with ACHN renal, in the assay with KM12 colon and with SNB-19 CNS was greater than 100 µM each time. Besides, the TGI in the assay on MALME-3M melanoma, in the assay on SF-295 CNS and with SNB-75 CNS was greater than 100 µM in each case.
Regarding `O=C(Nc1ccccc1)c1ccc(Cl)c([N+](=O)[O-])c1`, the TGI is greater than 100 µM in the assay on U251 CNS; 63.6 µM in the assay with NCI-H23 lung; 65 µM with SK-OV-3 ovarian; 12.7 µM in the assay with KM12 colon; 97.4 µM in the assay on SNB-19 CNS; 42.4 µM in the assay with MALME-3M melanoma. Besides, the results for the TGI in the assay on SF-295 CNS and in the assay on SNB-75 CNS were greater than 100 µM and 71.6 µM, respectively.
For `O=C(Nc1ccc(Cl)cc1)Nc1ccc(Cl)c(Cl)c1`, the GI50 in the assay with U251 CNS is 3.52 µM; in the assay on HCC-2998 colon, 3.9 µM; with NCI-H23 lung it was 3.34 µM; in the assay on ACHN renal, 3.71 µM; in the assay with KM12 colon it was 3.31 µM; in the assay with SNB-19 CNS it was 4.01 µM. Moreover, the figures for the GI50 in the assay on SF-295 CNS and in the assay with SNB-75 CNS were 4.02 µM and 2.59 µM, respectively. Besides, the concentration for total growth inhibition (TGI) with U251 CNS is greater than 100 µM; with HCC-2998 colon it was 44.5 µM; in the assay with NCI-H23 lung, greater than 100 µM; in the assay on ACHN renal it was greater than 100 µM; with KM12 colon it was 13.8 µM; in the assay on SNB-19 CNS it was greater than 100 µM. The TGI in the assay with SF-295 CNS and with SNB-75 CNS was greater than 100 µM in each case.
As to `c1cnc2c(c1)-n1cccc1C1(CCSCC1)NN2`, the TGI with HCC-2998 colon, in the assay on ACHN renal, in the assay on KM12 colon, in the assay with SNB-19 CNS, in the assay with MALME-3M melanoma and in the assay on SF-295 CNS was greater than 100 µM throughout. The same compound gave a TGI with SNB-75 CNS greater than 100 µM.
For `CCN(CC)CCn1c2c3ccccc3ccc2c2oc(=O)c3ccccc3c21`, the TGI in the assay with U251 CNS, in the assay on NCI-H23 lung, with SK-OV-3 ovarian, in the assay on ACHN renal, in the assay with KM12 colon and with SNB-19 CNS was greater than 100 µM in each case. For the same compound, the figures for the concentration for total growth inhibition (TGI) in the assay on MALME-3M melanoma, with SF-295 CNS and with SNB-75 CNS were greater than 100 µM, greater than 100 µM and 42.8 µM, respectively.
`O=c1cc(-c2ccccc2)[nH]c2cc(Cl)cc(Cl)c12`: the total growth inhibition concentration (TGI) was greater than 100 µM with U251 CNS; greater than 100 µM in the assay on NCI-H23 lung; 59.4 µM in the assay with SK-OV-3 ovarian; greater than 100 µM with ACHN renal; greater than 100 µM in the assay on KM12 colon; greater than 100 µM in the assay on MALME-3M melanoma. Moreover, the TGI was greater than 100 µM with SF-295 CNS and 30 µM with SNB-75 CNS.
Take `CN(C)CCNc1nc2ccccc2c2c1c1c(n2Cc2ccccc2)-c2ccccc2C1=O`: the GI50 in the assay with U251 CNS is 14.4 µM; with NCI-H23 lung it was 14.8 µM; in the assay on SK-OV-3 ovarian, 20.3 µM; in the assay with ACHN renal it was 6.43 µM; in the assay on SNB-19 CNS, 16.4 µM; with SF-295 CNS, 9.33 µM. For the same compound, the GI50 with SNB-75 CNS was 14.4 µM. Besides, the TGI in the assay with U251 CNS is 29.2 µM; in the assay on NCI-H23 lung it was 39.7 µM; with SK-OV-3 ovarian, 45.1 µM; in the assay with ACHN renal, 20.7 µM; in the assay with SNB-19 CNS, 33.8 µM; with SF-295 CNS it was 24.9 µM. For the same compound, the concentration for total growth inhibition (TGI) in the assay with SNB-75 CNS was determined as 28.9 µM.
For `O=C(O)C1CCc2ccc3ccccc3c2C1c1cccc2ccccc12` (configuration not stated), the concentration for total growth inhibition (TGI) with U251 CNS is 33.8 µM; in the assay on SK-OV-3 ovarian it was greater than 100 µM; in the assay with ACHN renal, greater than 100 µM; in the assay on KM12 colon, 37.8 µM; with SNB-19 CNS, 34.2 µM; in the assay on MALME-3M melanoma, 50.4 µM. Besides, the concentration for total growth inhibition (TGI) in the assay with SF-295 CNS was determined as 69.4 µM; in the assay on SNB-75 CNS, 90.1 µM.
As for `CCCC(=O)c1c(NOC2OC(COC(C)=O)C(OC(C)=O)C(OC(C)=O)C2OC(C)=O)nc(OC)n(C)c1=O` (configuration not stated), the TGI in the assay on U251 CNS, in the assay on HCC-2998 colon, in the assay with NCI-H23 lung, in the assay on ACHN renal, in the assay on KM12 colon and in the assay on SNB-19 CNS was greater than 100 µM each time. The TGI in the assay on SF-295 CNS and with SNB-75 CNS was greater than 100 µM throughout.
